The values that follow come from paper PMC10231375, “HDR, the last enzyme in the MEP pathway, differently regulates isoprenoid biosynthesis in two woody plants” (Plant Physiology, 2023).

One assay concerns T1, PaHDR1.
T1 construct: gene HDR1; plastid transit peptide removed (borders only in supplemental primers); E. coli BL21-AI; anaerobic glutathione column; [4Fe-4S] enzyme
The experiment in a line: LC-MS/MS of DMADP + IDP, initial velocities, Lineweaver-Burk. The format is biochemical, Picea abies. Particulars: anaerobic; 1 mM methyl viologen, 3 mM sodium dithionite, MgCl2; pH 6.5; 30 °C or 35 °C.

Another assay concerns T2, PaHDR2.
T2 construct: gene HDR2; plastid transit peptide removed (borders only in supplemental primers); E. coli BL21-AI; anaerobic glutathione column; [4Fe-4S] enzyme
Described as above. The format is biochemical, Picea abies. Particulars: anaerobic; 1 mM methyl viologen, 3 mM sodium dithionite, MgCl2; pH 6.5; 30 °C or 35 °C; text calls PaHDR1 the lower-affinity enzyme, against the printed order of Km values; Figure 3 legend.

By Km is commonly meant the concentration of substrate that gives half-maximal velocity. `C/C(=C\COP(=O)(O)OP(=O)(O)O)CO` [HMBDP, (E)-4-hydroxy-3-methylbut-2-enyl diphosphate]: the Km stood at 15.9 µM with PaHDR1 and 21.2 µM with PaHDR2.
